Structures are written as SMILES. Numbered stars: 1 amine (or outer) side, 2 acyl side, 3 side chain; on linkers, the order of the positions; unused ones are H or OH. Square brackets hold non-standard residues; d marks the D form. Peptide text beside a SMILES is read from it. * marks the point of attachment. Propanoyl(3-indol-3-yl) = O=C(CCc1c[nH]c2ccccc12)*; Propanoyl(3-(4-F-phenyl)) = O=C(CCc1ccc(F)cc1)*; Propanoyl(3-(4-MeO-Ph)) = COc1ccc(CCC(=O)*)cc1; dTrp(5-F) = N[C@H](Cc1c[nH]c2ccc(F)cc12)C(=O)O; Propanoyl(3-(4-Cl-Ph)) = O=C(CCc1ccc(Cl)cc1)*; X10 = O=C([C@@H](Cc1cncs1)N[*:1])[*:2]; 1Nal = N[C@@H](Cc1cccc2ccccc12)C(=O)O; d1Nal = N[C@H](Cc1cccc2ccccc12)C(=O)O; d(hCit) = NC(=O)NCCCC[C@@H](N)C(=O)O; Lys(iPr) = CC(C)NCCCC[C@H](N)C(=O)O; NMeY = CN[C@@H](Cc1ccc(O)cc1)C(=O)O; Benzoyl(4-F) = O=C(c1ccc(F)cc1)*; NMeF = CN[C@@H](Cc1ccccc1)C(=O)O; d3Pal = N[C@H](Cc1cccnc1)C(=O)O; Nicotinoyl = O=C(c1cccnc1)*; X9 = O=C(CCc1ccc(Br)cc1)*; Morpholide = C1CN(*)CCO1; Orn = NCCC[C@H](N)C(=O)O; X4 = O=C(CCc1cccc(F)c1)*; CO = O=C([*:1])[*:2]

The source of these data is patent US5140009A (Tap Pharmaceuticals, Inc., priority 1990, dated 1992).

One test addresses T1, LHRH receptors (Rattus norvegicus, UniProt P30969).
T1 construct: Pituitary membranes containing LHRH receptors are prepared in batches from quick-frozen rat pituitaries; tissue Hilltop Labs; host or cells: rat pituitary membranes
T1 sequence (P30969 1-327): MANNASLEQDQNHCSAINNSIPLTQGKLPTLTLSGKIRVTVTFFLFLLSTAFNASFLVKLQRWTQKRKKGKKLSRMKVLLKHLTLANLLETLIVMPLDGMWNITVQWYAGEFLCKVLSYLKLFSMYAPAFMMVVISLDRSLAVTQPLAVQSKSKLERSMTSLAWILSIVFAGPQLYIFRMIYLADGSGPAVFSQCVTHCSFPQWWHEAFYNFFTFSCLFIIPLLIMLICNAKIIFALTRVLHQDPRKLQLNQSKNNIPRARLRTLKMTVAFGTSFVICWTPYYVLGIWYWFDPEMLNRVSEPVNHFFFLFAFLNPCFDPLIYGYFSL
The experiment in a line: Receptor Binding (radioligand receptor binding assay). The following applies: table 3; rat pituitary membranes, radioiodinated [D-Leu^6 -des Gly^10 ]-LHRH ethyl amide 50 pM, 2 hours at 4° C.; read-out: Receptor Binding pkI (converted).
Consider `CCNC(=O)[C@@H]1CCCN1C(=O)[C@H](CCCNC(=N)N)NC(=O)[C@H](CC(C)C)NC(=O)[C@@H](Cc1c[nH]c2ccccc12)NC(=O)[C@H](Cc1ccc(O)cc1)NC(=O)[C@H](CO)NC(=O)[C@H](Cc1ccc(O)cc1)N(C)C(=O)[C@H](Cc1ccccc1)NC(=O)N1CCOCC1` [Compound 116, (2-9)[N-(N-alpha-Morpholinocarbonyl)-Phe^2 -N-Me-Tyr^3 -D-Trp^6-Pro^9 NHEt]LHRH] ({Morpholide-CO}-F[NMeY]SY[dW]LRP-NHEt), for which the Ki is 5010 pM. For `CCNC(=O)[C@@H]1CCCN1C(=O)[C@H](CCCNC(=N)N)NC(=O)[C@H](CC(C)C)NC(=O)[C@@H](Cc1c[nH]c2ccccc12)NC(=O)[C@H](Cc1ccc(O)cc1)NC(=O)[C@H](CO)NC(=O)[C@H](Cc1c[nH]c2ccccc12)NC(=O)CCc1ccc(OC)cc1` [Compound 95, (3-9)[N-(3-(4-Methoxyphenyl)propionyl) -Trp^3 -D-Trp^6 -Pro^9 NHEt]LHRH] ({Propanoyl(3-(4-MeO-Ph))}-WSY[dW]LRP-NHEt), the Ki is 77.6 pM.

On to `CCNC(=O)CC[C@@H](NC(=O)[C@H](Cc1ccc(O)cc1)NC(=O)[C@H](CO)NC(=O)CCc1c[nH]c2ccccc12)C(=O)N[C@@H](CC(C)C)C(=O)N[C@@H](CCCNC(=N)N)C(=O)N1CCC[C@H]1C(=O)NCC` [Compound 51, N-(3-(3-Indole)propionyl)-Ser-Tyr-N-delta-ethyl-D-Gln-Leu-Arg-ProNHEt] ({Propanoyl(3-indol-3-yl)}-SY[dE](NHEt)LRP-NHEt), for which the Ki was 132000 pM.

As for `CCNC(=O)[C@@H]1CCCN1C(=O)[C@H](CCCNC(=N)N)NC(=O)[C@H](CC(C)C)NC(=O)[C@@H](Cc1c[nH]c2ccccc12)NC(=O)[C@H](Cc1ccc(O)cc1)NC(=O)[C@H](CO)NC(=O)CCc1ccc(F)cc1` [Compound 77, (4-9)[N-(3-(4-Fluorophenyl)propionyl) -Ser^4 -D-Trp^6 -Pro^9 NHEt]LHRH] ({Propanoyl(3-(4-F-phenyl))}-SY[dW]LRP-NHEt), the Ki is 3980 pM. The same measure, in the same setting: under `CCNC(=O)[C@@H]1CCCN1C(=O)[C@H](CCCNC(=N)N)NC(=O)[C@H](CC(C)C)NC(=O)[C@@H](CCCNC(=N)N)NC(=O)[C@H](Cc1ccc(O)cc1)NC(=O)[C@H](CO)NC(=O)[C@H](Cc1c[nH]c2ccccc12)NC(=O)[C@H](Cc1ccccc1)NC(=O)N1CCOCC1` [Compound 60, N-(alpha)-Morpholinocarbonyl-Phe-Trp-Ser-Tyr-D-Arg-Leu-Arg-ProNHEt] ({Morpholide-CO}-FWSY[dR]LRP-NHEt) stands 5250 pM.

The test is the same for the next values; noted with them: table 4; rat pituitary membranes, radioligand 50 pM, 2 hours at 4° C.; read-out: Receptor Binding pkI (converted).
Turning to `CC(C)C[C@H](NC(=O)[C@@H](CCCCN)NC(=O)[C@H](Cc1ccccc1)N(C)C(=O)[C@H](CO)NC(=O)[C@@H](Cc1cccc2ccccc12)NC(=O)CCc1ccc(F)cc1)C(=O)N[C@@H](CCCNC(=N)N)C(=O)N1CCC[C@H]1C(=O)N[C@H](C)C(N)=O` [Compound 189, (3-10)[N-(3-(4-Fluorophenyl)propionyl)-D-1-Nal^3 -NMePhe^5 -D-Lys^6 -D-Ala^10]LHRH] ({Propanoyl(3-(4-F-phenyl))}-[d1Nal]S[NMeF][dK]LRP[dA]-NH2), the Ki is 5.5 pM. Consider `CCNC(=O)[C@@H]1CCCN1C(=O)[C@H](CCCNC(=N)N)NC(=O)[C@H](CC(C)C)NC(=O)[C@@H](Cc1c[nH]c2ccccc12)NC(=O)[C@H](Cc1ccc(O)cc1)N(C)C(=O)[C@H](CO)NC(=O)[C@H](Cc1cccc2ccccc12)NC(=O)CCc1ccc(Br)cc1` [Compound 160, (3-9)[N-(3-(4-Bromophenyl)propionyl) -1-Nal^3 -NMeTyr^5 -DTrp^6 -Pro^9 NHEt]LHRH] (X9-[1Nal]S[NMeY][dW]LRP-NHEt), for which the Ki was 110 pM. The same measure, in the same setting: the result for `CCNC(=O)[C@@H]1CCCN1C(=O)[C@H](CCCNC(=N)N)NC(=O)[C@H](CC(C)C)NC(=O)[C@@H](Cc1c[nH]c2ccccc12)NC(=O)[C@H](Cc1ccc(O)cc1)NC(=O)[C@H](CO)NC(=O)[C@@H](Cc1c[nH]c2ccc(F)cc12)NC(=O)CCc1ccc(F)cc1` [Compound 143, (3-9)[N-(3-(4-Fluorophenyl)propionyl)-D -5-F-Trp^3 -D-Trp^6 -Pro^9 NHEt]LHRH] ({Propanoyl(3-(4-F-phenyl))}-[dTrp(5-F)]SY[dW]LRP-NHEt) reads 49 pM; that for `CCNC(=O)[C@@H]1CCCN1C(=O)[C@H](CCCN=C(N)N)NC(=O)[C@H](CC(C)C)NC(=O)[C@@H](CCCCNC(=O)c1cccnc1)NC(=O)[C@H](Cc1ccc(O)cc1)N(C)C(=O)[C@H](CO)NC(=O)[C@@H](Cc1c[nH]c2ccccc12)NC(=O)CCc1ccc(Cl)cc1` [Compound 154, (3-9)[N-(3-(4-Chlorophenyl)propionyl) -D-Trp^3 -NMeTyr^5 -DLys^6 (N-epsilon-nicotinyl)-Pro ^9 NHEt]LHRH] ({Propanoyl(3-(4-Cl-Ph))}-[dW]S[NMeY][dK](Nicotinoyl)LRP-NHEt), 31.6 pM. Still for that read-out and setting: under `CCNC(=O)[C@@H]1CCCN1C(=O)[C@H](CCCN=C(N)N)NC(=O)[C@H](CC(C)C)NC(=O)[C@@H](Cc1c[nH]c2ccccc12)NC(=O)[C@H](Cc1ccc(O)cc1)NC(=O)[C@H](CO)NC(=O)[C@@H](Cc1cccc2ccccc12)NC(=O)CCc1ccc(F)cc1` [Compound 145, (3-9)[N-(3-(4-Fluorophenyl)propionyl) -D-1-Nal^3 -D-Trp^6 -Pro^9 NHEt]LHRH] ({Propanoyl(3-(4-F-phenyl))}-[d1Nal]SY[dW]LRP-NHEt) stands 25.1 pM; under `CC(C)C[C@H](NC(=O)[C@@H](CCCCN)NC(=O)[C@H](Cc1ccc(O)cc1)N(C)C(=O)[C@H](CO)NC(=O)[C@@H](Cc1cccnc1)NC(=O)CCc1ccc(F)cc1)C(=O)N[C@@H](CCCNC(=N)N)C(=O)N1CCC[C@H]1C(=O)N[C@H](C)C(N)=O` [Compound 170, (3-10)[N-(3-(4-Fluorophenyl)propionyl)-D-3-Pal^3 -NMeTyr^5 -D-Lys^6 -D-Ala^10]LHRH] ({Propanoyl(3-(4-F-phenyl))}-[d3Pal]S[NMeY][dK]LRP[dA]-NH2), 20.4 pM; under `CC(C)C[C@H](NC(=O)[C@@H](CCCCNC(=O)c1cccnc1)NC(=O)[C@H](CCCCNC(=O)c1cccnc1)NC(=O)[C@H](CO)NC(=O)[C@@H](Cc1cccc2ccccc12)NC(=O)CCc1ccc(F)cc1)C(=O)N[C@@H](CCCNC(=N)N)C(=O)N1CCC[C@H]1C(=O)N[C@H](C)C(N)=O` [Compound 191] ({Propanoyl(3-(4-F-phenyl))}-[d1Nal]SK(Nicotinoyl)[dK](Nicotinoyl)LRP[dA]-NH2), 9.55 pM. As to `CC(C)C[C@H](NC(=O)[C@@H](CCCCN)NC(=O)[C@H](Cc1ccc(O)cc1)N(C)C(=O)[C@H](CO)NC(=O)[C@@H](Cc1c[nH]c2ccccc12)NC(=O)CCc1ccc(F)cc1)C(=O)N[C@@H](CCCNC(=N)N)C(=O)N1CCC[C@H]1C(=O)N[C@H](C)C(N)=O` [Compound 173, (3-10)[N-(3-(4-Fluorophenyl)propionyl)-D-Trp^3 -NMeTyr^5 -D-Lys^6 -D-Ala^10]LHRH] ({Propanoyl(3-(4-F-phenyl))}-[dW]S[NMeY][dK]LRP[dA]-NH2), the Ki is 5.75 pM. In the case of `CCNC(=O)[C@@H]1CCCN1C(=O)[C@H](CCCN=C(N)N)NC(=O)[C@H](CC(C)C)NC(=O)[C@@H](CCCCNC(=O)c1cccnc1)NC(=O)[C@H](Cc1ccc(O)cc1)N(C)C(=O)[C@H](CO)NC(=O)[C@@H](Cc1c[nH]c2ccccc12)NC(=O)CCc1cccc(F)c1` [Compound 153, (3-9)[N-(3-(3-Fluorophenyl)propionyl) -D-Trp^3 -NMeTyr^5 -D-Lys^6 (N-epsilon-nicotinyl)-Pro ^9 NHEt]LHRH] (X4-[dW]S[NMeY][dK](Nicotinoyl)LRP-NHEt), the Ki was 24 pM. Still for that read-out and setting: under `CC(=O)NCCC[C@H](NC(=O)c1ccc(F)cc1)C(=O)N[C@H](Cc1cccc2ccccc12)C(=O)N[C@@H](CO)C(=O)N(C)[C@@H](Cc1ccc(O)cc1)C(=O)N[C@H](Cc1cncs1)C(=O)N[C@@H](CC(C)C)C(=O)N[C@@H](CCCCNC(C)C)C(=O)N1CCC[C@H]1C(=O)N[C@H](C)C(N)=O` [Compound 215, N-alpha-(4-Fluorobenzoyl)-Orn(N-delta-acetyl)-D-1-Nal-Ser-NMeTyr-D-Thiaz-Leu-Lys(N-epsilon-isopropyl)-Pro-D-AlaNH2] ({Benzoyl(4-F)}-[Orn](Ac)[d1Nal]S[NMeY][X10]L[Lys(iPr)]P[dA]-NH2) stands 339 pM; under `CC(C)C[C@H](NC(=O)[C@@H](Cc1cccnc1)NC(=O)[C@H](Cc1ccc(O)cc1)NC(=O)[C@H](CO)NC(=O)[C@@H](Cc1cccc2ccccc12)NC(=O)CCc1ccc(F)cc1)C(=O)N[C@@H](CCCCNC(C)C)C(=O)N1CCC[C@H]1C(=O)N[C@H](C)C(N)=O` [Compound 201, (3-10)[N-(3-(4-Fluorophenyl)propionyl)-D-1-Nal^3 -D-3Pal^6 -Lys^8 (N-epsilon-isopropyl)-D-Ala^10]LHRH] ({Propanoyl(3-(4-F-phenyl))}-[d1Nal]SY[d3Pal]L[Lys(iPr)]P[dA]-NH2), 20.4 pM; under `CC(C)C[C@H](NC(=O)[C@@H](CCCCNC(N)=O)NC(=O)[C@H](Cc1ccc(O)cc1)N(C)C(=O)[C@H](CO)NC(=O)[C@@H](Cc1cccc2ccccc12)NC(=O)CCc1ccc(F)cc1)C(=O)N[C@@H](CCCNC(=N)N)C(=O)N1CCC[C@H]1C(=O)N[C@H](C)C(N)=O` [Compound 178, (3-10)[N-(3-(4-Fluorophenyl)propionyl)-D-1-Nal^3 -NMeTyr^5 -D-Hcit^6 -D-Ala^10]LHRH] ({Propanoyl(3-(4-F-phenyl))}-[d1Nal]S[NMeY][d(hCit)]LRP[dA]-NH2), 9.55 pM.
